# Patent US20210317099A1, “SAFER, POTENT, AND FAST ACTING ANTIMICROBIAL AGENTS” (Purdue Research Foundation, priority 2020, published 2021)
# Read-outs that look alike come from different tables or passages of the source.
# Tests used:
# Type in all cases: cell-based
# [1] = tested on: human keratinocytes cell line (HaCaT cells); experiment: In vitro cytotoxicity, MTS assay; conditions: 2 h
# Experimental: Compounds 144, 148, 149, 151, 155, and 158 were assayed (at concentrations of 16, 32, and 64 μg/mL) against a human keratinocytes cell line (HaCaT cells) to determine their in vitro potential toxic effect. Briefly, cells were cultured in Dulbecco's Modified Eagle Medium (DMEM) supplemented with 10% fetal bovine serum (FBS) and penicillin-streptomycin at 37° C. in presence of 5% CO2. Compounds were added in the first row of the 96-well plate. Control cells received DMSO alone at a concentration equivalent to that in drug-treated wells. The cells were incubated with the compounds (in triplicate) in a 96-well plate at 37° C. in presence of 5% CO2 for two hours. The assay reagent MTS 3-(4,5-dimethylthiazol-2-yl)-5-(3-carboxymethoxyphenyl)-2-(4-sulfophenyl)-2H-tetrazolium) (Promega, Madison, Wis., USA) was subsequently added and the plate was incubated for three to four hours. Absorbance readings (at OD490) were recorded using a kinetic microplate reader (Molecular Devices, Sunnyvale, Calif., USA). The quantity of viable cells after treatment with each compound was expressed as a percentage of the viability to DMSO-treated control cells (average of triplicate wells±standard deviation).
# FIG. 2. Analyzing the toxicity of compounds 144, 148, 149, 151, 155 and 158 (tested in triplicates at 16, 32 and 64 μg/mL) against human keratinocytes cells (HaCaT) using the MTS 3-(4,5-dimethylthiazol-2-yl)-5-(3-carboxymethoxyphenyl)-2-(4-sulfophenyl)-2H-tetrazolium) assay. Results are presented as percent viable cells relative to DMSO (negative control to determine a baseline measurement for the cytotoxic impact of each compound). The absorbance values represent an average of three samples analyzed for each compound. Error bars represent standard deviation values. The data were analyzed via a two-way ANOVA with post-hoc Dunnett's test for multiple comparisons. An asterisk (*) denotes statistical significance (P<0.05) between results for compounds and DMSO.
# [2] = tested on: Staphylococcus aureus NRS384 (MRSA USA300); experiment: Initial MIC screening, broth microdilution (CLSI); conditions: for MIC: Staphylococcus aureus NRS384 (MRSA USA300), broth microdilution, visual reading
# Method in brief: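 MRSA USA300 grown 24 h at 37 °C on tryptic soy agar, then adjusted to 5×10^5 CFU/ml in cation-adjusted Mueller-Hinton broth. Compounds serially diluted 64 to 0.5 μg/mL per CLSI broth microdilution; MIC recorded.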
# [3] = tested on: MRSA NRS 119; experiment: MIC, Gram-positive panel; conditions: Staphylococcus aureus; MRSA NRS 119; read-out: MIC
# Experimental: (§1) Next, the spectrum of antibacterial activity of compounds 144, 148, 149, 151, 155, 158, and 187 was examined against a panel of clinically relevant Gram-positive bacterial pathogens including methicillin-resistant Staphylococcus aureus (MRSA), vancomycin-resistant Staphylococcus aureus (VRSA), vancomycin-resistant Enterococcus faecalis and Enterococcus faecium (VRE), and Streptococcus pneumoniae. Bacterial strains were grown aerobically overnight on tryptone soya agar plates at 37° C. Afterwards, a bacterial solution equivalent to 0.5 McFarland standard was prepared and diluted in cation-adjusted Mueller-Hinton broth (CAMHB) (for staphylococci). Enterococci and Streptococci were diluted in tryptone soya broth (TSB) to achieve a bacterial concentration of about 5×10^5 CFU/mL and seeded in 96-well plates. Compounds and control drugs were added in the first row of 96-well plates and serially diluted with media containing bacteria. Plates were then, incubated aerobically at 37° C. for 18-20 hours (except for S. pneumoniae, which was incubated at 37° C. in presence of 5% CO2 for 18-20 hours).
# [4] = tested on: VRSA 10; experiment: MIC, Gram-positive panel; conditions: Staphylococcus aureus; VRSA 10; read-out: MIC
# Experimental: as §1
# [5] = tested on: S. aureus ATCC 6538; experiment: MIC, Gram-positive panel; conditions: Staphylococcus aureus, ATCC6538; S. aureus ATCC 6538; read-out: MIC
# Experimental: as §1
# [6] = tested on: MRSA NRS 123; experiment: MIC, Gram-positive panel; conditions: Staphylococcus aureus; MRSA NRS 123; read-out: MIC
# Experimental: as §1
# [7] = tested on: Enterococcus faecalis ATCC 51299 (VRE); experiment: MIC, Gram-positive panel; conditions: Enterococcus faecalis ATCC 51299 (VRE); read-out: MIC
# Experimental: as §1
# [8] = tested on: Methicillin-resistant S. pneumoniae ATCC 700677; experiment: MIC, Gram-positive panel; conditions: Streptococcus pneumoniae, ATCC700677; Methicillin-resistant S. pneumoniae ATCC 700677; read-out: MIC
# Experimental: as §1
# [9] = tested on: Enterococcus faecium ATCC 700221 (VRE); experiment: MIC, Gram-positive panel; conditions: Enterococcus faecium ATCC 700221 (VRE); read-out: MIC
# Experimental: as §1
# [10] = tested on: S. pneumoniae ATCC 51916; experiment: MIC, Gram-positive panel; conditions: Streptococcus pneumoniae, ATCC51916; S. pneumoniae ATCC 51916; read-out: MIC
# Experimental: as §1
# [11] = tested on: MRSA NRS 386; experiment: MIC, Gram-positive panel; conditions: Staphylococcus aureus; MRSA NRS 386; read-out: MIC
# Experimental: as §1
# [12] = tested on: S. aureus NRS 107; experiment: MIC, Gram-positive panel; conditions: Staphylococcus aureus, NRS107; S. aureus NRS 107; read-out: MIC
# Experimental: as §1
# [13] = tested on: Methicillin-resistant S. epidermidis NRS101; experiment: MIC, Gram-positive panel; conditions: Staphylococcus epidermidis; Methicillin-resistant S. epidermidis NRS101; read-out: MIC
# Experimental: as §1
# [14] = tested on: MRSA NRS 385; experiment: MIC, Gram-positive panel; conditions: Staphylococcus aureus; MRSA NRS 385; read-out: MIC
# Experimental: as §1
# [15] = tested on: VRSA 12; experiment: MIC, Gram-positive panel; conditions: Staphylococcus aureus; VRSA 12; read-out: MIC
# Experimental: as §1
smiles,measurement,setting,value
C=C(C(=O)OC)C(c1cccc2ccccc12)C(O)c1ccccc1 (centres unmarked) [Compound 144],tolerable concentration as multiple of MIC against MRSA,[1],16 to 32 times
same,potency compared with control antibiotic,"[2]; MRSA USA300, Table 1 assay",potency similar to the oxazolidinone class of antimicrobial drug linezolid
same,MIC,[2],1 µg/mL
same,MIC,"[2]; Staphylococcus aureus, read-out: MIC",1 to 2 µg/mL
same,MIC,[3],1 µg/mL
same,MIC,[4],1 µg/mL
same,MIC,[5],1 µg/mL
same,MIC,[6],1 µg/mL
same,MIC,[7],> 64 µg/mL
same,MIC,[8],1 µg/mL
same,MIC,[9],64 µg/mL
same,MIC,[10],1 µg/mL
same,MIC,[11],1 µg/mL
same,MIC,[12],1 µg/mL
same,MIC,[13],1 µg/mL
same,MIC,[14],1 µg/mL
same,MIC,[15],1 µg/mL
